# Test results: ChEMBL document CHEMBL1909046, “DrugMatrix in vitro pharmacology data”
# Key:
# [1] = target: T1, Cholecystokinin receptor type A (Homo sapiens, UniProt P32238); format: cell membranes, Membrane; settings: 1321-n1; note: in other assays of this panel Not Active means under 50% inhibition at 10 µM
# T1 sequence (P32238 whole entry): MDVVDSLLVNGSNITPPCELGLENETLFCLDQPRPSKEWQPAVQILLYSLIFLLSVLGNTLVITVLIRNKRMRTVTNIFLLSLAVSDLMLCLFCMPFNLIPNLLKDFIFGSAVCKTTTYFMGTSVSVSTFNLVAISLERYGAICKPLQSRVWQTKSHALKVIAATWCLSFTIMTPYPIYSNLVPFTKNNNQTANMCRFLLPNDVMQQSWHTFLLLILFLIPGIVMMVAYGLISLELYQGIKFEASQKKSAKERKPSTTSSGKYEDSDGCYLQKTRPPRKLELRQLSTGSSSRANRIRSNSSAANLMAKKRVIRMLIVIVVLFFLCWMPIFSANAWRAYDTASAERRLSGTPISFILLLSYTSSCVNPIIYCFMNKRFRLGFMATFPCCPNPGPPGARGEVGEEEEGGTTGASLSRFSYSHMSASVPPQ
# [2] = target: Beta-1 adrenergic receptor (Homo sapiens, UniProt P08588); test: DRUGMATRIX: Adrenergic beta1 radioligand binding (ligand: [125I] Cyanopindolol); format: cell membranes, CHO-K1, Membrane; settings: cho-k1; Not Active = under 50% inhibition at 10 µM
# Chain of Beta-1 adrenergic receptor (P08588 whole entry): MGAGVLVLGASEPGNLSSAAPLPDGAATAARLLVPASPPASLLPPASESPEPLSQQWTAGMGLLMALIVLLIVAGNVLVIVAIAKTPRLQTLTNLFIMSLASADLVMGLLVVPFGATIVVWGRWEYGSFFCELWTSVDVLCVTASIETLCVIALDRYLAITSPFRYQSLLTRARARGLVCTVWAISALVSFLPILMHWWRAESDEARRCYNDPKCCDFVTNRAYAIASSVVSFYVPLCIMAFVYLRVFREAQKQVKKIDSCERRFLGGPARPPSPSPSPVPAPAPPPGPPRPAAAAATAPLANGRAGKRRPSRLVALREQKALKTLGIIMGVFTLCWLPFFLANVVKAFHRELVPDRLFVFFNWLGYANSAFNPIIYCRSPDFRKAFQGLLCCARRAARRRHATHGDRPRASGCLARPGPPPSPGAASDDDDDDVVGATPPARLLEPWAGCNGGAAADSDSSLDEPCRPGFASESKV
# [3] = target: T2, Adenosine receptor A3 (Homo sapiens, UniProt P0DMS8); format: cell membranes, CHO-K1, Membrane; settings: cho-k1;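 note: radioligand binding assay with AB-MECA serving as the labeled ligand; in other assays of this panel Not Active means under 50% inhibition at 10 µM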
# T2 sequence (P0DMS8 whole entry): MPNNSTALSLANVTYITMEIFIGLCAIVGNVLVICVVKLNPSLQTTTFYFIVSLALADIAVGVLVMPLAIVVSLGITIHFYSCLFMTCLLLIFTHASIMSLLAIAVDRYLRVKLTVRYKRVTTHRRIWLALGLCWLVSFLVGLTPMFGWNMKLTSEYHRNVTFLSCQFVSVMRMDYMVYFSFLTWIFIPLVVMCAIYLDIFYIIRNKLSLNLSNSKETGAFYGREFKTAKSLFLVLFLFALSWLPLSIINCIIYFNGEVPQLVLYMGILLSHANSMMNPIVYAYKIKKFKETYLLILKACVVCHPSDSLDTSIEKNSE
# [4] = target: T3, 5-hydroxytryptamine receptor 2C (Homo sapiens, UniProt P28335); test: DRUGMATRIX: Serotonin (5-Hydroxytryptamine) 5-HT2C radioligand binding (ligand: [3H] Mesulergine); format: cell membranes, CHO-K1, Membrane; settings: Not Active = under 50% inhibition at 10 µM
# T3 sequence (P28335 whole entry): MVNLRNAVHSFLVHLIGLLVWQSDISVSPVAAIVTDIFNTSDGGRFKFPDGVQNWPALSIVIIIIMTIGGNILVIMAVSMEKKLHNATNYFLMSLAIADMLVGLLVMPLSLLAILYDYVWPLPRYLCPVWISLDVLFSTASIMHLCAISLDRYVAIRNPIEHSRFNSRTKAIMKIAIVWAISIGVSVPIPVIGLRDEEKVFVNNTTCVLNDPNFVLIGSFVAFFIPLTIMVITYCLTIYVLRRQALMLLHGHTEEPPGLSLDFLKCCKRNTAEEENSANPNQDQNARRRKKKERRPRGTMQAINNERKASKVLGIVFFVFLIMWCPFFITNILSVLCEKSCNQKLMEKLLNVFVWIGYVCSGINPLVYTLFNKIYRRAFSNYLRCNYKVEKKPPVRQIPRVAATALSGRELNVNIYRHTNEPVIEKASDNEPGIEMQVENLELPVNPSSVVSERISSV
# [5] = DRUGMATRIX: Serotonin (5-Hydroxytryptamine) 5-HT3 radioligand binding (ligand: [3H] GR-65630); format: cell membranes, Membrane; settings: hek293; Not Active = under 50% inhibition at 10 µM
# [6] = target: T4, Neutrophil elastase (Homo sapiens, UniProt P08246); format: tissue-based;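 note: inhibition of neutrophil elastase enzyme activity, measured with a p-nitroanilide-linked peptide substrate; in other assays of this panel Not Active means under 50% inhibition at 10 µM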
# T4 sequence (P08246 whole entry): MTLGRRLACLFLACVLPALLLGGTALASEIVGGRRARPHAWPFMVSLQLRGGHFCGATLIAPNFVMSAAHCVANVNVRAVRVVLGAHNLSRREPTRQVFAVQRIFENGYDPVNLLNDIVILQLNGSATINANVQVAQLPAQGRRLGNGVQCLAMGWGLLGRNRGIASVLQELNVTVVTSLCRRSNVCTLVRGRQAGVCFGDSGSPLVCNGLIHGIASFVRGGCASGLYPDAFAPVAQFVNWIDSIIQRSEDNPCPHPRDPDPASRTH
# [7] = target: C-C chemokine receptor type 5 (Homo sapiens, UniProt P51681); format: cell membranes, HEK293, Membrane; settings: hek293; note: in other assays of this panel Not Active means under 50% inhibition at 10 µM
# Chain of C-C chemokine receptor type 5 (P51681 whole entry): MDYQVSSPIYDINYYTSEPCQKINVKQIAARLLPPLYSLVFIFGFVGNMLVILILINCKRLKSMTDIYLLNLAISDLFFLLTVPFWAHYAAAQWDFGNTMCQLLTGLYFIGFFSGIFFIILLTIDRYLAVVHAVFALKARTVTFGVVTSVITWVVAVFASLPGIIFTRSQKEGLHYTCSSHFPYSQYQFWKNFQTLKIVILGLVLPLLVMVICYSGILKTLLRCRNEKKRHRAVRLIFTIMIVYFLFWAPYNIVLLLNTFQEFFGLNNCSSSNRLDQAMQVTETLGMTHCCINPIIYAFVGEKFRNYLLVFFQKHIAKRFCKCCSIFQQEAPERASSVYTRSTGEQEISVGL
compound,measurement,setting,value
O=C(C1CCCCC1)N1CC(=O)N2CCc3ccccc3C2C1 (centres undefined) [PRAZIQUANTEL],IC50,[1],Not Active
same,IC50,[2],Not Active
same,IC50,[3],Not Active
same,IC50,[4]; cho-k1,Not Active
same,IC50,[5],Not Active
same,Ki,[5],Not Active
same,IC50,[6],Not Active
same,IC50,[7],Not Active
CCN(CC)CCOC(=O)c1ccc(N)cc1 [PROCAINE],IC50,[1],Not Active
same,IC50,[2],Not Active
same,IC50,[3],Not Active
same,IC50,[4]; cho-k1,Not Active
same,IC50,[5],Not Active
same,Ki,[5],Not Active
same,IC50,[6],Not Active
same,IC50,[7],Not Active
CCCN(CCC)C(=O)C(CCC(=O)O)NC(=O)c1ccccc1 (centres undefined) [PROGLUMIDE],IC50,[1],Not Active
same,IC50,[2],Not Active
same,IC50,[3],Not Active
same,IC50,[4]; cho-k1,Not Active
same,IC50,[5],Not Active
same,Ki,[5],Not Active
same,IC50,[6],Not Active
same,IC50,[7],Not Active
NC(=O)c1cnccn1 [PYRAZINAMIDE],IC50,[1],Not Active
same,IC50,[2],Not Active
same,IC50,[3],Not Active
same,IC50,[4]; cho-k1,Not Active
same,IC50,[5],Not Active
same,Ki,[5],Not Active
same,IC50,[6],Not Active
same,IC50,[7],Not Active
OC(CCN1CCCCC1)(c1ccccc1)C1CCCCC1 (centres undefined) [TRIHEXYPHENIDYL],IC50,[1],Not Active
same,IC50,[2],Not Active
same,IC50,[3],Not Active
same,IC50,[4]; cho-k1,Not Active
same,IC50,[5],Not Active
same,Ki,[5],Not Active
same,IC50,[6],Not Active
same,IC50,[7],Not Active
Cc1cc2cc3c(C)cc(=O)oc3c(C)c2o1 [TRIOXSALEN],IC50,[1],Not Active
same,IC50,[2],Not Active
same,IC50,[3],Not Active
same,IC50,[4]; read-out: IC50,2.36 µM
same,Ki,[4]; read-out: Ki,1.23 µM
same,IC50,[5],Not Active
same,Ki,[5],Not Active
same,IC50,[6],Not Active
same,IC50,[7],Not Active
CCCC(CCC)C(=O)O [VALPROIC ACID],IC50,[1],Not Active
same,IC50,[2],Not Active
same,IC50,[3],Not Active
same,IC50,[4]; cho-k1,Not Active
same,IC50,[5],Not Active
same,Ki,[5],Not Active
same,IC50,[6],Not Active
same,IC50,[7],Not Active
CCC1=C[C@@H]2CN(C1)Cc1c([nH]c3ccccc13)[C@@](C(=O)OC)(c1cc3c(cc1OC)N(C)[C@H]1[C@@](O)(C(=O)OC)[C@H](OC(C)=O)[C@]4(CC)C=CCN5CC[C@]31[C@@H]54)C2 [VINORELBINE],IC50,[1],Not Active
same,IC50,[2],Not Active
same,IC50,[3],Not Active
same,IC50,[4]; cho-k1,Not Active
same,IC50,[5],Not Active
same,Ki,[5],Not Active
same,IC50,[6],Not Active
same,IC50,[7],Not Active
CADMIUM DICHLORIDE,IC50,[1],Not Active
same,Ki,[1],Not Active
same,IC50,[2],Not Active
same,Ki,[2],Not Active
same,IC50,[3],Not Active
same,Ki,[3],Not Active
same,IC50,[4]; cho-k1,Not Active
same,Ki,[4]; cho-k1,Not Active
same,IC50,[5],Not Active
same,Ki,[5],Not Active
same,IC50,[6],Not Active
same,Ki,[6],Not Active
same,IC50,[7],Not Active
same,Ki,[7],Not Active
